Data taken from patent US8299097B2, “Methods for treating inflammatory disorders” (The Brigham and Women's Hospital, Inc., priority 2008, dated 2012).
Values belong to the compound of their own block, whether it stands above or below them.

Key:
human P2Y12 = human P2Y12 (Homo sapiens, UniProt Q9H244); experiment: Binding of cys-LTs to membranes of CHO cells stably expressing the human P2Y12 receptor; design: polyhistidine (HIS) tag (C); expressed in transfected cells
Excerpt: A P2Y12 receptor cDNA was amplified by reverse transcriptase polymerase chain reaction (RT-PCR) from RNA extracted from primary hMCs and cloned into a mammalian expression vector. Expression was confirmed by detection of a histidine (HIS) tag by flow cytometry. Another cohort of CHO cells were stably transfected with a P2Y12 receptor construct in reverse orientation as a negative control. […] The cys-LT-induced ERK activation blocked by pre-treatment of the cells with pertussis toxin (PTX), was attenuated by treatment with the P2Y12 receptor-selective antagonist 2-methylthioadenosine monophosphate (2-MesAMP) (FIG. 1C), and was resistant to MK571, an inhibitor that blocks CysLT1R and some P2Y receptors (Mamedova, L., et al. 2005. Biochem. Pharmacol. 71:115-125). […] These responses were resistant to PTX and 2-MesAMP, and susceptible to MK571 in the case of the CysLT1R transfectants.
A human P2Y12 receptor cDNA was amplified by 30 cycles of PCR from reverse-transcribed total RNA extracted from primary cord blood hMCs. The primer sequences were 5′-[…] (SEQ ID NO: 1) and 3′-[…] (SEQ ID NO: 2). The fragment was cloned into a TA vector (INVITROGEN™). After verifying the nucleotide sequence, the fragment was subcloned into the multiple cloning site of the expression vector pEF1/His B, encoding a C-terminal polyhistidine (HIS) tag. A plasmid expressing the P2Y12 receptor construct in the forward orientation were transfected into CHO cells using Fugene HD reagent according to manufacturer's protocol. A construct in the reverse sequence was transfected in parallel as a negative control. […]
[^3H] […] Protein concentration was determined using Biorad Protein Assay Kit. […] The residual membrane-associated [^3H] on the filter was determined in 2 ml scintillation fluid by beta counter (Perkin Elmer). For [^3H]ADP, specific binding was determined by subtracting the amount of [^3H] bound in the presence of 100 μM 2-MesADP from total binding.

P2Y receptor signaling = conditions: mouse, in vivo; cited from earlier work
5-LO = molecular target: T1, 5-LO (Homo sapiens, UniProt P09917); conditions: cited from earlier work
T1 sequence (P09917 1-674): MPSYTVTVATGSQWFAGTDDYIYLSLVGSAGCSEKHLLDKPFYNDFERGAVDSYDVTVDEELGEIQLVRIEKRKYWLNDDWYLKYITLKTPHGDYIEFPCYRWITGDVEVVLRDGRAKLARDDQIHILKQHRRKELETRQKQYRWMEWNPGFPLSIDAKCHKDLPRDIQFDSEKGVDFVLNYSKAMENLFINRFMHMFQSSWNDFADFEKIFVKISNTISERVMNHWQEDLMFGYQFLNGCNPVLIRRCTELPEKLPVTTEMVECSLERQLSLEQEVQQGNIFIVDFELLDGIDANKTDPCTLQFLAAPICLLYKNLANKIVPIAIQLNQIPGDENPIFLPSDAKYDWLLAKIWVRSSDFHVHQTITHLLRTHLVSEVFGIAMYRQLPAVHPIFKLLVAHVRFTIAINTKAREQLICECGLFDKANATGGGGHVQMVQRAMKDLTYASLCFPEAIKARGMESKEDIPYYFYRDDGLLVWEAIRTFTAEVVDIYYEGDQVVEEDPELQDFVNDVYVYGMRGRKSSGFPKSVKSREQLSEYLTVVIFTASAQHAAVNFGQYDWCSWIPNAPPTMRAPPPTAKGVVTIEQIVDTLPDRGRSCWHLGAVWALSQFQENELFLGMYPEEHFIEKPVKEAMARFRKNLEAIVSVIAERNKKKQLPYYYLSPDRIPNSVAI

human blood platelets = experiment: Platelet activation, cytofluorographic detection of P-selectin (CD62P); format: cell-based; conditions: ADP 100 μM or LTE4 1 μM, 10 min
Description: (§1) FIG. 6. […] Each antibody (Ab) was diluted in 50 μl of sterile saline. […] 6A. PAS stains of the lungs of representative mice treated with isotype control (top) or with an anti-CD42 platelet-depleting antibody (bottom). 6B. Inflammation (top) and goblet cell metaplasia (bottom) in the lungs of mice treated with the indicated LT and antibody. A cohort of mice was treated with clopidogrel as indicated. Results in 6B are from a single experiment with 5 mice per group. […] 6C. […] Results are from a single experiment performed three times on different donors.
(§2) Platelets accumulate in the lungs of asthmatic individuals (Jeffery, P. K., et al. 1989. Am. Rev. Respir. Dis. 140:1745-1753), and are also recruited to the lungs of ovalbumin sensitized and challenged mice by an IgE-dependent mechanism (Pitchford, S. C., et al. 2008. Am. J. Respir. Crit. Care Med. 177:604-612).

[1] = test system: CHO cells expressing CysLT1R, CysLT2R, or P2Y12 receptors; experiment: Calcium flux in Fura-2-AM-loaded CHO transfectants; format: cell-based, human; conditions: LTE4 500 nM, ADP 100 μM; ADP response reflects endogenous P2Y receptors
P2Y12 receptors [2] = molecular target: T2, P2Y12 receptors (Mus musculus, UniProt Q9CPV9); conditions: both antigen doses (3 and 10 μg Der f)
Description: Role of P2Y12 receptors in inflammation mediated by dust mite allergen. C57BL/6 mice were treated intranasally with the indicated dose of Dermatophagoides farinae (Der f) extract twice weekly for 3 weeks. Animals were euthanized 24 h after the last dose. […] Effect of clopidogrel treatment on bronchovascular inflammation and goblet cell metaplasia in C57BL/6 mice subjected to intranasal challenge with the indicated doses of an extract from the house dust mite. Results are the mean±SEM from 5 mice/group. The experiment was repeated three times with similar results.
To determine whether pharmacologic blockade of P2Y12 receptors altered pulmonary inflammatory responses in a more physiologic model of pulmonary inflammation, C57BL/6 mice were administered an extract of house dust mite Dermatophagoides farinea (Der f) intranasally twice weekly for three weeks, with or without clopidogrel treatment. Two different doses of Der f were used to elicit moderate (at 3 μg) and severe (at 10 μg) inflammation, respectively.
For Der f-mediated pulmonary inflammation, 6-8 week old C57BL/6 mice were lightly anaesthetized and received either 3 or 10 μg of Der f extract (Greer Labs) on days 0, 3, 7, 10, 14 and 17. Some mice received clopidogrel throughout the duration of the experiment. Mice were euthanized 24 h after the last intranasal instillation.
2.5 μm thick glycolmethacrylate sections were stained with H&E for general morphologic examination. […] The extent of cellular infiltration in the bronchovascular bundles was evaluated without knowledge of the particular treatment and was categorized arbitrarily as grade 0=no inflammation, grade 1=mild inflammation, grade 2=moderate inflammation, grade 3=severe inflammation. 15 bronchovascular bundles of each mouse were evaluated. […] The length of basal lamina of corresponding bronchus was measured by Image J (NIH image analysis software). […] The data were expressed as the average of goblet cell counts stained in each bronchus in each section per mm bronchial basal lamina.

P2Y12 receptors [3] = molecular target: T2, P2Y12 receptors; experiment: Clopidogrel effect on LTE4-mediated amplification of OVA-induced pulmonary inflammation; format: in vivo; design: from tissue; host or cells: whole animal: BALB/c (OVA model) and C57BL/6 (Der f model) mice
Description: FIG. 4. […] 4A. […] Clopidogrel (500 μg/ml) was added to the drinking water of the indicated groups of mice for 72 h before the first intranasal dose of LTs, and was maintained throughout the treatment. Results are mean±SEM from at least 9 mice in each group. The experiments were repeated three times with similar results. 4B. PAS stains (left column) from representative mice in the indicated groups showing the effect of clopidigrel on goblet cell metaplasia. Higher magnification images of H & E stains (right) from the same animals showing cellular characteristics of the bronchovascular infiltrates. 4C. Effect of clopidogrel administration on the steady-state expression of IL-13 and MUC5AC mRNA as determined by real-time PCR of whole lung RNA extracted 24 h after the last OVA challenge of the indicated groups. Data are mean±SEM from 4-5 mice/group from a single experiment. Results in a second experiment were similar 4D-4F. […] 4D. Total cell numbers (top), percentages of eosinophils (middle), and total numbers of eosinophils in BAL fluid recovered 24 h after the last challenge with OVA. 4E. Goblet cell metaplasia (top) and representative PAS stains (bottom) from wild-type and p2ry12^−/− mice subjected to the same protocol. 4E. Inflammation scores from the same mice. Data in 4D-4F are from 4 mice per group. Results in a second experiment were similar 4G. BALB/c Cysltr1/Cysltr2^−/− mice and age-matched WT controls were subjected to the same protocol as the p2ry12^−/− mice. Total cell numbers (top), percentages of eosinophils (middle), and total numbers of eosinophils in BAL fluid recovered 24 h after the last challenge with OVA. Results are from 6 mice per group. Three experiments were performed with similar results. 4H. Goblet cell numbers (top) and representative PAS stains (bottom). 4I. Quantitative assessment of bronchovascular inflammation as determined by H & E stains. Results are from 6 mice/group.
FIG. 5. Effect of clopidogrel on LTE4-mediated amplification of pulmonary inflammation. 5A. […] The indicated mice were treated with clopidogrel for 72 h before the first dose of leukotriene. Results are mean±SEM from a minimum of 9 mice in each group. 5B. PAS stains (left column) from representative mice in the indicated groups showing the effect of clopidigrel on goblet cell metaplasia. Higher magnification images of H & E stains (right) from the same animals showing cellular characteristics of the bronchovascular infiltrates. 5C. Effect of clopidogrel administration on the steady-state expression of IL-13 and MUC5AC mRNA as determined by real-time PCR of whole lung RNA extracted 24 h after the last OVA challenge of the indicated groups. Data are mean±SEM from 4-5 mice/group. […]

mouse CD42b (GPIbα) = experiment: Platelet depletion in sensitized mice given LTE4 and low-dose OVA; conditions: in vivo
Description: as §1, §2

[4] = clopidogrel 500 μg/ml in drinking water

T2 sequence (Q9CPV9 whole entry): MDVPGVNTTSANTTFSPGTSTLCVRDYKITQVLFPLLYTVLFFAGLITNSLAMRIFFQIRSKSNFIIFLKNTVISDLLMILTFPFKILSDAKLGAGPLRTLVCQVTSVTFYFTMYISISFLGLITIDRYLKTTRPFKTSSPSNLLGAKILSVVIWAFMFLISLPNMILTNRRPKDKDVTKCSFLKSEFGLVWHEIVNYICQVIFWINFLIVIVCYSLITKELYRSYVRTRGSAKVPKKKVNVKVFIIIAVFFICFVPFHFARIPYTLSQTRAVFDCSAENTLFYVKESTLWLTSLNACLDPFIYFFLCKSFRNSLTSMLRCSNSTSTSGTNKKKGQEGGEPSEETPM
Sequence of human P2Y12 (Q9H244 whole entry): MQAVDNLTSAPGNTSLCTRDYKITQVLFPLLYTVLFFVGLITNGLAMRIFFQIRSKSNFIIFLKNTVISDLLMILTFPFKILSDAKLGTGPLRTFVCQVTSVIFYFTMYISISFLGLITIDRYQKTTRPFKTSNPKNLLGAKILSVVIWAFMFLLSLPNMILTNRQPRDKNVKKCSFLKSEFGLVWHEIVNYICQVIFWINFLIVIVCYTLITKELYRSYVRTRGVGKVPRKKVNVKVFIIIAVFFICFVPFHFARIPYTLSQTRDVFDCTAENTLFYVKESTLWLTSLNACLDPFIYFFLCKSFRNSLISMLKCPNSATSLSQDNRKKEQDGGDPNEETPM

binding to membranes of the transfectants (human P2Y12): also bound
Structure (SMILES): CCCCC/C=C\C\C=C/C=C/C=C/[C@@H](SC[C@H](NC(=O)CC[C@H](N)C(=O)O)C(=O)NCC(=O)O)[C@@H](O)CCCC(=O)O [LTC4]

Structure (SMILES): Cc1ccc(C(=O)Nc2ccc(S(=O)(=O)O)c3cc(S(=O)(=O)O)cc(S(=O)(=O)O)c23)cc1NC(=O)c1cccc(NC(=O)Nc2cccc(C(=O)Nc3cc(C(=O)Nc4ccc(S(=O)(=O)O)c5cc(S(=O)(=O)O)cc(S(=O)(=O)O)c45)ccc3C)c2)c1 [suramin]
allergen-induced pulmonary inflammation and AHR (P2Y receptor signaling): dramatically inhibited

Structure (SMILES): CC(c1cc2ccccc2s1)N(O)C(N)=O (stereo not shown) [zileuton]
block of cys-LT generation in vivo (5-LO): ~50%

Structure (SMILES): Nc1ncnc2c1ncn2[C@@H]1O[C@H](COP(=O)(O)OP(=O)(O)O)[C@@H](O)[C@H]1O [ADP, adenosine diphosphate]
CD62P expression by platelets (human blood platelets): elicited CD62P expression
calcium flux [1]: did exhibit a response

attenuation of BAL fluid eosinophilia (P2Y12 receptors [2]): ~75%
goblet cell metaplasia (P2Y12 receptors [2]): significant reductions
pulmonary inflammation (P2Y12 receptors [2]): significant reductions
Structure (SMILES): COC(=O)C(c1ccccc1Cl)N1CCc2sccc2C1 (stereo not drawn) [clopidogrel, methyl alpha-5 (4,5,6,7-tetrahydro (3,2-c)thienopyridyl)(2-chlorophenyl)-acetate]
LTE4-induced potentiation of goblet cell metaplasia (P2Y12 receptors [3]; [4]): complete lack of LTE4-induced potentiation
LTE4-induced potentiation of inflammation (P2Y12 receptors [3]; [4]): complete lack of LTE4-induced potentiation
lung expression of IL-13 and MUC5AC mRNA (real-time PCR) (P2Y12 receptors [3]; whole lung RNA 24 h after last OVA challenge): substantially suppressed the expression of both
LTE4-mediated expression of mRNA encoding IL-13 and MUC5AC (mouse CD42b (GPIbα)): sharply reduced
combination of platelet depletion with clopidogrel (mouse CD42b (GPIbα)): not additive
